This is an account of results in paper PMC9065678, “BI 1015550 is a PDE4B Inhibitor and a Clinical Drug Candidate for the Oral Treatment of Idiopathic Pulmonary Fibrosis” (Frontiers in Pharmacology, 2022).

In data set [1] the test system is IPF-LF cells. Nature of the data set: bFGF plus IL-1β-induced proliferation of IPF lung fibroblasts (bromodeoxyuridine assay). The settings on record: Homo sapiens, Fibroblast, read-out: Inhibition of proliferation. It is filed as cell-based. The protocol:
(§1) Fibroblasts from donors with IPF (IPF-LF) (Asterand, Detroit, MI, United States) were grown in fibroblast basal medium (CC-3131, Lonza Walkersville, Inc., Walkersville, MD, United States) supplemented with FGM-2 SingleQuot Kit Supplements and Growth Factors (CC-4126, Lonza). Cells were grown in a humidified incubator at 37°C and 5% CO2. All assays were performed at passage 7 or 8. For assay set-up, cells were seeded in fibroblast growth medium plus supplements in assay-relevant densities. For TGF-β-stimulated assays, cells were seeded at 4,500 cells per well in 96-well plates. Proliferation assays were performed in 96-well plates at an initial seeding cell density on day 0 of 2,000 cells per well. After 24-h, the cell culture medium was changed to starvation medium (fibroblast basal medium without supplements). After a 24-h starvation period, cells were pre-incubated for 30 min with different concentrations of BI 1015550 plus/minus different concentrations of nintedanib and/or 1 nmol/L PGE2 and stimulated with the assay-relevant stimulus for the indicated time in the presence of the compound.
IPF-LF cells were stimulated with bFGF (20 ng/mL) plus IL-1β (30 pg/mL). After 72 h of stimulation, 10-times concentrated bromodeoxyuridine was added and the cells were incubated for another 18 h (final concentration bromodeoxyuridine 10 μmol/L). Cell proliferation was assessed by bromodeoxyuridine assay (Roche, Mannheim, Germany) according to the instruction manual.

For data set [2], the system named is α-SMA protein expression. The experiment in a line: α-SMA protein expression of TGF-β-stimulated IPF lung fibroblasts (Western blot replacement assay). It is filed as cell-based, human. The conditions noted are these: alone, up to the highest concentration of 100 nmol/L. The protocol:
as §1
For determination of α-SMA protein expression, IPF-LF cells were stimulated with TGF-β (4 ng/mL) for 48 h. Lysates were assayed in a Western blot replacement assay (MSD). In short, lysates were pipetted onto high binding plates (MSD) and were sequentially incubated with a mouse anti-human α-SMA antibody (Sigma Aldrich) and an anti-mouse sulfo-tag antibody (MSD). For analysis, an MSD sector imager was used.
(In general: Immunoblotting shows a protein as a band on a membrane.)

Data set [3] addresses T1, PDE4B (Homo sapiens, UniProt Q07343).
T1 construct: PDE4B NG_029038: AA 152–484; made in house; host or cells: SF9 insect cells (baculovirus, Bac-To-Bac, pFastbac)
Nature of the data set: Recombinant PDE activity, scintillation proximity assay: PDE4B. It is filed as biochemical. The conditions noted are these: human recombinant active site fragment, substrate [3H]cAMP, means from n independent experiments; read-out: IC50 PDE4B2. The protocol: (§2) For the preparation of human recombinant PDEs of interest, the Bac-To-Bac baculoviral expression system from Invitrogen (Carlsbad, CA, United States) was used according to the instruction manual. […] The plasmids were transformed into DH10Bac bacteria, SF9 insect cells were transfected with the bacmid DNA, and the resulting baculoviruses were stored and used for further rounds of infections. For protein production, SF9 cells were infected until a cytopathic effect was visible (after about 72 h), the SF9 cells were harvested and broken up by 3 freeze/thaw cycles, and by shearing 10 times through a 0.1 mm cannula using a syringe. […] The Phosphodiesterase Scintillation Proximity Assays (TRKQ7090 for [^3H]cAMP, GE Healthcare Europe GmbH, Chalfont St Giles, United Kingdom, and TRKQ7100 for [^3H]cGMP, Perkin Elmer, Waltham, MA, United States) were performed essentially according to the instruction manual. […] Assay solutions containing recombinant baculoviral-expressed PDE (to give an activity of 5.000–20.000 cpm corresponding to 5–20% of total activity added), 50 mmol/L Tris/HCl pH 7.5, 8.3 mmol/L MgCl2, 1.7 mmol/L EGTA, and 10 µL radiolabeled substrate (0.05 µCi in H2O) were incubated for 1 h at 30°C (final volume 100 μL).

The target in data set [4] is T2, PDE4A (Homo sapiens, UniProt P27815).
T2 construct: PDE4A (NG_029594, AA 156–886); made in house; host or cells: SF9 insect cells (baculovirus, Bac-To-Bac, pFastbac)
T2 sequence (P27815 156-886): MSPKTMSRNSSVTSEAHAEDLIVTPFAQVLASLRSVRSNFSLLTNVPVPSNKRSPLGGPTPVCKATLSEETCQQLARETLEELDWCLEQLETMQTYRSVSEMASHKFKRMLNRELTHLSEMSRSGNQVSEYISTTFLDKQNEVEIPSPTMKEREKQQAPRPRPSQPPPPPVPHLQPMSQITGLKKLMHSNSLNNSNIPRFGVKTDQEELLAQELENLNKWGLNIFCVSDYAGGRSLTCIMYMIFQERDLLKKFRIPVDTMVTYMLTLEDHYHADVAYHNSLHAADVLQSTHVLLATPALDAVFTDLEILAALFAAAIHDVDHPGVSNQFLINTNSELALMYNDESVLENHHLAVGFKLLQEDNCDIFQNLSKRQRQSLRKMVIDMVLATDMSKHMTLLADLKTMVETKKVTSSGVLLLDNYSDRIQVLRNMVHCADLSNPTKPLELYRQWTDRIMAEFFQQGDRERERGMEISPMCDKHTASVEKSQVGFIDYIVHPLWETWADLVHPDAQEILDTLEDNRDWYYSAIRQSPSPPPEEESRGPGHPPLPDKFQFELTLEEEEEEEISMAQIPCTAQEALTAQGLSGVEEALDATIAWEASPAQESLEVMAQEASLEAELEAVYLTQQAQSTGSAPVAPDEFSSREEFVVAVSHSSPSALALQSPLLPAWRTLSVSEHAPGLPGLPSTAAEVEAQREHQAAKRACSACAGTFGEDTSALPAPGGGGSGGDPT
The experiment in a line: Recombinant PDE activity, scintillation proximity assay: PDE4A. It is filed as biochemical. The settings on record: substrate [3H]cAMP, means from n independent experiments. The protocol: as §2
Background: SPA uses beads or plates that emit light when radiolabelled molecules are held near them.

Data set [5] has as its target T3, PDE4D (Homo sapiens, UniProt Q08499).
T3 construct: PDE4D NG_027957, AA 79–438; made in house; host or cells: SF9 insect cells (baculovirus, Bac-To-Bac, pFastbac)
The experiment in a line: Recombinant PDE activity, scintillation proximity assay: PDE4D. It is filed as biochemical. The settings on record: human recombinant active site fragment, substrate [3H]cAMP, means from n independent experiments; read-out: IC50 PDE4D2. The protocol:
as §2

Data set [6] deals with T4, PDE4C (Homo sapiens, UniProt Q08493).
T4 construct: made in house; host or cells: SF9 insect cells (baculovirus, Bac-To-Bac, pFastbac)
T4 sequence (Q08493 107-712): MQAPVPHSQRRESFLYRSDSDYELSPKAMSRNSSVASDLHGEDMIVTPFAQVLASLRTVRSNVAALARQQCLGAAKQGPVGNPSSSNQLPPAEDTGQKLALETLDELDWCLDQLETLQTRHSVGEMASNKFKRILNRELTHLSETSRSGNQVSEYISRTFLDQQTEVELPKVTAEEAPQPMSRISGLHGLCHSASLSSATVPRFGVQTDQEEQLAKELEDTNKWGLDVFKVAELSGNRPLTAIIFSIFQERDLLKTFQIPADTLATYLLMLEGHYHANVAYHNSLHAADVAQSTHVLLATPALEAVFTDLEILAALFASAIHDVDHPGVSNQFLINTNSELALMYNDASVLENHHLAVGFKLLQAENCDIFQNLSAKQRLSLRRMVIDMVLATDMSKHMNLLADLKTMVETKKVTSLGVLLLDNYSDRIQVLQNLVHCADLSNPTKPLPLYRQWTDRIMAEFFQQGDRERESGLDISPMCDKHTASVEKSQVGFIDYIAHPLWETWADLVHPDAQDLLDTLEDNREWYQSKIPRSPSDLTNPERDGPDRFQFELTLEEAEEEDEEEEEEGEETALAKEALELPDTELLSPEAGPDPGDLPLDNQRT
Nature of the data set: Recombinant PDE activity, scintillation proximity assay: PDE4C. It is filed as biochemical. The conditions noted are these: substrate [3H]cAMP, means from n independent experiments, read-out: IC50 PDE4C2. The protocol:
as §2

Data set [7] has as its system Suncus murinus. Nature of the data set: Determination of emesis in male Suncus murinus. It is filed as in vivo. The protocol:
All animals (50–55 g) were dosed orally by gavage immediately before transfer to whole-body plethysmography boxes. The volume of application was set to 10 mL/kg body weight. For assessment of the emetic events, animals were placed in the whole-body plethysmography boxes without any access to feed or water for 3 h. The whole-body plethysmography system used to detect emetic events consisted of five major components: 1) plethysmography boxes for mice (Buxco®, PLY 3211-F, Data Sciences International, New Brighton, MN, United States), 2) a pressure transducer with an amplifier, 3) a bias flow regulator, 4) a PC-based system to receive and process the amplified signals, and 5) a PC-based data acquisition system (NOTOCORD-hem™, Instem, Stone, United Kingdom) to process signals, as well as in-house-developed software to detect and identify changes in breathing pattern. Retching and vomiting induced characteristic changes in the breathing pattern of animals and these were recorded by whole-body plethysmography and translated for NOTOCORD recording. A number of preset definitions (computer-based criteria) characteristic for emetic events were determined. Peaks that met the set internal computer-based criteria and exceeded the threshold of more than 600 mV were labeled as emetic events by the system on a standard basis.

For data set [8], the system named is LPS-induced lung neutrophil influx. Nature of the data set: LPS-induced lung neutrophil influx in male Wistar rats. It is filed as in vivo, rat. The conditions noted are these: Rattus norvegicus, Neutrophil, oral, data not shown. The source says: (§3) Compared with other animal species used to study emesis induction by PDE4 inhibitors, like ferrets, dogs, minipigs, or monkeys, Suncus murinus allows the testing of a sufficient number of animals to provide a high statistical power. […] Male Suncus murinus (weight 50–55 g) from Boehringer Ingelheim (Biberach an der Riss, Germany) or male Wistar rats (200–250 g, Charles River), eight animals per group, were used. […] For this purpose, animals in the positive control and treatment groups were put into a circular Plexiglas chamber with 16 pie-like compartments for one animal each, and were consecutively exposed to nebulized LPS for 30 min. The LPS solution used for nebulization contained 1 mg/mL LPS in phosphate-buffered saline (PBS). Nebulization was performed with the commercially available PARI Master® nebulizer with a PARI Master® LL adapter (Pari GmbH, Starnberg, Germany). 4 h after LPS exposure, the animals were anesthetized and euthanized by cervical dislocation. After sacrifice, the trachea was cannulated and bronchoalveolar lavage was performed by instilling and re-aspirating two-times 1 mL (Suncus murinus) or 5 mL (rat) lavage buffer (PBS +2% bovine serum albumin). BALF volumes were recorded manually. Determination of neutrophil numbers in BALF was performed using a blood hemacytometer (Sysmex XT-1800i, Kobe, Japan).

Data set [9] relates to LPS-induced neutrophil influx into the BALF. Nature of the data set: LPS-induced neutrophil influx into the BALF of Suncus murinus. It is filed as in vivo. The conditions noted are these: Neutrophil, oral, 30 min before nebulized LPS, read-out: ED50 LPS-induced BALF neutrophils.
Description: as §3

T1 sequence (Q07343 324-656): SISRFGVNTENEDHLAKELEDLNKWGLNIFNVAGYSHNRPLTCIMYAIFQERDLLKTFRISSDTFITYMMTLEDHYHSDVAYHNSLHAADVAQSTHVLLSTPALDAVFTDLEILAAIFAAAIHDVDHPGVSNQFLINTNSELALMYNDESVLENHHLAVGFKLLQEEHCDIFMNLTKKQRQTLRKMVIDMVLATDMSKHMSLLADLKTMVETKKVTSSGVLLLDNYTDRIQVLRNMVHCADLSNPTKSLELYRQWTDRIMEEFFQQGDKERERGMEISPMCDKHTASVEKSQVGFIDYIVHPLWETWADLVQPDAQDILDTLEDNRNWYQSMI
T3 sequence (Q08499 381-740): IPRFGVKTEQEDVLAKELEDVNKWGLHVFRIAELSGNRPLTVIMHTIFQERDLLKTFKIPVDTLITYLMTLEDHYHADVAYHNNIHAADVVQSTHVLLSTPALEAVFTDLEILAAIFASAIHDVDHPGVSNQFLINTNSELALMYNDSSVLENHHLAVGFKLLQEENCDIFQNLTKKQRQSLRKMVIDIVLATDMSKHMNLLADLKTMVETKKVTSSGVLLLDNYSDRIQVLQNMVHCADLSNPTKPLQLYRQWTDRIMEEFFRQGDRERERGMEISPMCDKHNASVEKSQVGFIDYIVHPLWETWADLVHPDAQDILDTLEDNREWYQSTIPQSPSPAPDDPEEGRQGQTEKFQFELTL

With `COC(=O)c1ccc2c(c1)NC(=O)/C2=C(\Nc1ccc(N(C)C(=O)CN2CCN(C)CC2)cc1)c1ccccc1` [Nintedanib, nintedanib, reference compound], the inhibition at 0.1 µM in data set [1] came to 15%. For the same compound, in [2], the “Inhibitory effect on α-SMA protein expression” value was “no inhibitory effect”.

Consider `O=C(Nc1c(Cl)c[n+]([O-])cc1Cl)c1ccc(OC(F)F)c(OCC2CC2)c1` [Roflu-N-Ox, roflumilast N-oxide, reference compound], for which the IC50 (usually the concentration that gives 50% inhibition) in data set [3] was 1.4 nM; in data set [4], 2.8 nM; in data set [5], 1.4 nM; in [6], 15 nM.

Take `O=C(Nc1c(Cl)cncc1Cl)c1ccc(OC(F)F)c(OCC2CC2)c1` [Roflumilast, roflumilast, reference compound]: the Animals showing emesis in data set [7] (10 × ED50 oral (BI 1015550 6 mg/kg, roflumilast 10 mg/kg)) is given as 10/24. In addition, the “% of vomiting animals, emesis at 10 × ED50” value in data set [7] (oral (BI 1015550 6 mg/kg, roflumilast 10 mg/kg), 24 animals) stood at 42%. Besides, the ED50 in [8] and in data set [9] was 1 mg/kg each time.
